Assay results: article PMC9004346, “Development of small cyclic peptides targeting the CK2α/β interface” (Chemical Communications (Cambridge, England), 2022)
*1 amine or outer side, *2 acyl side, *3 side chain or, on linkers, in order; H or OH if unused. Where a SMILES comes first, the peptide text is derived from it. Bridges are numbered along the chain shown (N, C = ends). [ ]: non-standard residue; d: D form. Trp(2-yl) = O=C([C@H](Cc1c([*:3])[nH]c2ccccc12)N[*:1])[*:2]; hCys = N[C@@H](CCS)C(=O)O

What was measured:
[1] = Serum stability test; type: in vitro ADME; settings: 20% human serum in PBS, 37 °C, monitored over 24 h
Procedure: 1.6.3 Serum stability test
500 μL of PBS buffer supplemented with 20% (v/v) of human serum was allocated into an Eppendorf tube and temperature kept at 37 °C for 15 minutes before commencing the experiment. 5 µL of the peptide from 10 mM stock solution in DMSO was added. Caffeine was added as an internal standard (10 μL of a 15 mg/mL solution in MQ water). At specific intervals, 50 µL of the reaction mixture was taken and quenched with 100 µL of a 1:1 mixture of 96% Ethanol:DMSO. The suspension was spun at 13400 g for 10 minutes. 100 μL of the supernatant was analysed using C-18 HPLC with an eluting gradient 5-95% MeCN (0.05% TFA) in water (0.05% TFA) over 15 minutes (90 μL injection volume).
Percentage of intact starting peptide was monitored over 24 h (calculated as the ratio of the area of […]
the peak corresponding to the intact peptide to the area of the peak of caffeine). The experiment was […]
1 M. M. Wiedmann, Y. S. Tan, Y. Wu, S. Aibara, W. Xu, H. F. Sore, C. S. Verma, L. Itzhaki, M.
Stewart, J. D. Brenton and D. R. Spring, Angew. Chemie Int. Ed., 2017, 56, 524–529.
3 G. T. Potter, G. C. Jayson, G. J. Miller and J. M. Gardiner, J. Org. Chem., 2016, 81, 3443–3446.
4 J. Iegre, P. Brear, D. J. Baker, Y. S. Tan, E. L. Atkinson, H. F. Sore, D. H. O’ Donovan, C. S. Verma,
7 C. Puig Duran, F. Albericio Palomera, M. Gongora Benitez, M. Paradis Bas, L. Miret Casals, I. […]

[2] = target: T1, CK2α (Homo sapiens, UniProt P68400); test: Fluorescence polarisation (FP) assay: displacement of a CK2β-like fluorescent probe from CK2α; type: binding; settings: CK2α_WT (residues 2-329), fluorescein-labelled CK2β-based peptide probe, ±SEM
T1 construct: 571 nM CK2α_WT (residues 2-329); made in house
T1 sequence (P68400 2-329): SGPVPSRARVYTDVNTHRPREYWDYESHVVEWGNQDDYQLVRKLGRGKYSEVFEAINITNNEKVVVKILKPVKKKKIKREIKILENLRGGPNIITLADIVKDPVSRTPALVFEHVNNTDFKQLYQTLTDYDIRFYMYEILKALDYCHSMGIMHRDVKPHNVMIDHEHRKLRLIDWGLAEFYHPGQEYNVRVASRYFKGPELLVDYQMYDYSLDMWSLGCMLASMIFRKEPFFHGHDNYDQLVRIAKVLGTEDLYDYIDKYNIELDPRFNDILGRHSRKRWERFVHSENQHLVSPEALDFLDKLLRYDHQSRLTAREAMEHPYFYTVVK
Excerpt: To assess the ability of the synthesised linear peptides to displace a CK2β-like fluorescent probe from CK2α, a fluorescence polarisation (FP) assay was used (Table 1, ESI 1.3.2 and Fig. S2, ESI ^†). […]
1.5 Biophysical experiments
1.5.1 Protein expression and purification
Three constructs of CK2α were used in this study. For FP assays, CK2α_WT was used (residues 2-329). […]
These constructs were cloned, expressed, and purified as previously described.19 1.5.2 Fluorescence polarisation
IC50’s were determined using a PHERAstar FS plate reader (BMG labtech). The fluorescein probe was measured using 485 nm excitation and 530 nm emission. The fluorescein probe was covalently linked to the N-terminus of the linear CK2β-based peptide RLYGFKIHPMAYQLQ. IC50’s were measured using 500, 167, 16.7, 8.33 and 0 μM of the test peptide at a constant concentration of DMSO. P7C8, P8C9, P+L and P+ were tested at concentrations of 50.0, 16.7, 1.67, 0.833 and 0 μM due to their higher potencies. The experiments were performed in a Corning 384-well plate with final concentrations of 571 nM CK2α_WT (residues 2-329), 7.4 μM fluorescent peptide (fluorescein probe was covalently linked to the N-terminus of the linear CK2β-based peptide RLYGFKIHPMAYQLQ), 200 mM NaCl, 40mM TRIS, 20 mM MgCl2 and pH 7.5. The plates were read after a 45 min incubation period. […]

Serum stability (in words) [1]: fully stable in serum over 24 h | IC50 [2]: 1.7 ± 0.3 µM
SMILES: CC(=O)N[C@H]1CCSc2[nH]c3ccccc3c2C[C@@H](C(N)=O)NC(=O)[C@H](CCCCN)NC(=O)[C@H](Cc2ccccc2)NC(=O)CNC(=O)[C@H](Cc2ccc(O)cc2)NC(=O)[C@H](CC(C)C)NC(=O)[C@H](CCCNC(=N)N)NC1=O [Peptide P8C9, (hC)C9RLYGFKWC9] (Ac-[hCys]RLYGFK[Trp(2-yl)]-NH2; thioether 1-8)
